The source made the active and inactive calls. The rule behind the calls is not given here.
Columns and labels:
[1] = target: T1, Tyrosinase (Agaricus bisporus, UniProt O42713)
T1 sequence (O42713 whole entry): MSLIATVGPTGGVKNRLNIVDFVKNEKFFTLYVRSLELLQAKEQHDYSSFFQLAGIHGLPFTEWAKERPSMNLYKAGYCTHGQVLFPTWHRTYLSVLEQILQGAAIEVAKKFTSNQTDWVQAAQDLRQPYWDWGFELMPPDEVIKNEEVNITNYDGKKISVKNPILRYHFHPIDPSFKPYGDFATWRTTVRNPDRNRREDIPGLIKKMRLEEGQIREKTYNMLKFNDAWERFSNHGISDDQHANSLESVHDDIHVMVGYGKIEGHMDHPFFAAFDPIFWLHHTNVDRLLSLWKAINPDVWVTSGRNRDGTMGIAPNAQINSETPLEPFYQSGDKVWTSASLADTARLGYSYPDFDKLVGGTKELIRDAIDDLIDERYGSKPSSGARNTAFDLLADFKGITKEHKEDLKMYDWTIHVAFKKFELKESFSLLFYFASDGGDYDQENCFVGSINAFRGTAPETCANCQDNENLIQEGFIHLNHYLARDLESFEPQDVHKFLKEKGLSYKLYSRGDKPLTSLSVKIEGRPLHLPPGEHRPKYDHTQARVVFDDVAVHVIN

[2] = cells; conditions: Mus musculus, B16-4A5, 72 h, read-out: INH
Description: Inhibition of melanogenesis in theophylline-stimulated mouse B16-4A5 cells at 30 uM after 72 hrs

[3] = test system: B16-4A5; assay: Inhibition of TRP1 mRNA expression in theophylline-stimulated mouse B16-4A5 cells at 1 to 30 uM after 72 hrs; assay type: functional, cell-based
[4] = cells; conditions: Mus musculus, B16-4A5, 68 h, read-out: INH
Description: Inhibition of theophylline-stimulated mouse B16-4A5 cell proliferation assessed as cell viability at 10 uM after 68 hrs by WST8 assay

[5] = cells; conditions: Mus musculus, B16-4A5, 68 h, read-out: INH; remark: listed apart in the source
Description: Inhibition of theophylline-stimulated mouse B16-4A5 cell proliferation assessed as cell viability at 3 uM after 68 hrs by WST8 assay

[6] = test system: B16-4A5; assay: Inhibition of tyrosinase mRNA expression in theophylline-stimulated mouse B16-4A5 cells at 1 to 30 uM after 72 hrs; assay type: functional, cell-based
[7] = cells; conditions: Mus musculus, B16-4A5, 72 h, read-out: INH; remark: listed apart in the source
Description: Inhibition of melanogenesis in theophylline-stimulated mouse B16-4A5 cells at 10 uM after 72 hrs

[8] = test system: B16-4A5; assay: Inhibition of TRP2 mRNA expression in theophylline-stimulated mouse B16-4A5 cells at 1 to 30 uM after 72 hrs; assay type: functional, cell-based
[9] = test system: B16; assay: cells; conditions: Mus musculus, B16, 72 h
Description: Inhibition of melanogenesis in theophylline-stimulated mouse B16-4A5 cells after 72 hrs

[10] = cells; conditions: Mus musculus, B16-4A5, 68 h, read-out: INH; remark: listed apart in the source
Description: Inhibition of theophylline-stimulated mouse B16-4A5 cell proliferation assessed as cell viability at 100 uM after 68 hrs by WST8 assay

[11] = target: T2, Tyrosinase (Agaricus bisporus) (UniProt O42713); assay: Inhibition of mushroom tyrosinase at 3 uM
T2 sequence (whole entry): T1 sequence (O42713 whole entry)

[12] = test system: B16-4A5; assay: Inhibition of microphthalmia-associated transcriptional factor level in theophylline-stimulated mouse B16-4A5 cells at 1 to 30 uM after 24 hrs; assay type: functional, cell-based
[13] = cells; conditions: Mus musculus, B16-4A5, 72 h, read-out: INH; remark: listed apart in the source
Description: Inhibition of melanogenesis in theophylline-stimulated mouse B16-4A5 cells at 3 uM after 72 hrs

[14] = cells; conditions: Mus musculus, B16-4A5, 68 h
Description: Inhibition of theophylline-stimulated mouse B16-4A5 cell proliferation assessed as cell viability after 68 hrs by WST8 assay

[15] = test system: B16-4A5; assay: Inhibition of microphthalmia-associated transcriptional factor level in theophylline-stimulated mouse B16-4A5 cells at 1 to 30 uM after 48 hrs; assay type: functional, cell-based
[16] = cells; conditions: Mus musculus, B16-4A5, 68 h, read-out: INH; remark: listed apart in the source
Description: Inhibition of theophylline-stimulated mouse B16-4A5 cell proliferation assessed as cell viability at 1 uM after 68 hrs by WST8 assay

[17] = cells; conditions: Mus musculus, B16-4A5, 72 h, read-out: INH; remark: listed apart in the source
Description: Inhibition of melanogenesis in theophylline-stimulated mouse B16-4A5 cells at 1 uM after 72 hrs

[18] = target: T2, Tyrosinase (Agaricus bisporus); assay: Inhibition of mushroom tyrosinase at 1 uM
[19] = cells; conditions: Mus musculus, B16-4A5, 68 h, read-out: INH; remark: listed apart in the source
Description: Inhibition of theophylline-stimulated mouse B16-4A5 cell proliferation assessed as cell viability at 30 uM after 68 hrs by WST8 assay

[20] = cells; conditions: Mus musculus, B16-4A5, 72 h, read-out: INH; remark: listed apart in the source
Description: Inhibition of melanogenesis in theophylline-stimulated mouse B16-4A5 cells at 100 uM after 72 hrs

[21] = Inhibition of melanogenesis in theophylline-stimulated mouse B16-4A5 cells at 300 uM after 72 hrs; assay type: functional; conditions: B16-4A5, 72 h
[22] = Inhibition of theophylline-stimulated mouse B16-4A5 cell proliferation assessed as cell viability at 300 uM after 68 hrs by WST8 assay; assay type: functional; conditions: B16-4A5, 68 h
[23] = Inhibition of melanogenesis in theophylline-stimulated mouse B16-4A5 cells at 1000 uM after 72 hrs; assay type: functional; conditions: B16-4A5, 72 h
[24] = Inhibition of theophylline-stimulated mouse B16-4A5 cell proliferation assessed as cell viability at 1000 uM after 68 hrs by WST8 assay; assay type: functional; conditions: B16-4A5, 68 h

| SMILES | IC50 [1] [µM] | inhibition at 30 µM [2] [%] | inhibition at 10 µM [4] [%] | inhibition at 3 µM [5] [%] | inhibition at 10 µM [7] [%] | IC50 [9] [µM] | inhibition at 100 µM [10] [%] | inhibition [11] [%] | inhibition at 3 µM [13] [%] | IC50 [14] [µM] | inhibition at 1 µM [16] [%] | inhibition at 1 µM [17] [%] | inhibition [18] [%] | inhibition at 30 µM [19] [%] | inhibition at 100 µM [20] [%] | other results |
| --- | --- | --- | --- | --- | --- | --- | --- | --- | --- | --- | --- | --- | --- | --- | --- | --- |
| O=c1c(O)c(-c2ccccc2)oc2cc(O)cc(O)c12 [GALANGIN] | > 100 | 87.1 | 11.4 | 7.1 | 43.4 | 17 | 53.3 | 26.6 | -5.3 | 100 | 1.7 | -0.5 | 28 | 12.7 | – | Activity [3]: Active; Activity [6]: Active; Activity [8]: Active; Activity [12]: inactive; Activity [15]: Active |
| O=c1c(O)c(-c2ccc(O)cc2)oc2cc(O)cc(O)c12 [KAEMPFEROL] | > 100 | 61.1 | 23.5 | 18.1 | 23.4 | 20 | 56 | 7.6 | 9.9 | 88 | 5.6 | 8.3 | 5.7 | 26.1 | – | – |
| COc1cc(CC[C@@H](O)CC(=O)CCc2ccccc2)ccc1O | > 100 | 49.2 | 11.8 | 11.7 | 23.4 | 30 | 20.8 | 4.7 | 8.9 | > 100 | 5.3 | 7.5 | 2.3 | 15.1 | 81.1 | – |
| COc1ccc(-c2oc3cc(O)cc(O)c3c(=O)c2O)cc1 [KAEMPFERIDE] | > 100 | 81.2 | 7.9 | 3.1 | 39.9 | 16 | 11.2 | -0.2 | 5.9 | > 100 | -2 | 0 | -1.7 | 7.4 | 78.4 | Activity [3]: Active; Activity [6]: Active; Activity [8]: Active; Activity [12]: inactive; Activity [15]: Active |
| O=C1c2c(O)cc(O)cc2O[C@H](c2ccc(O)cc2)[C@H]1O [DIHYDROKAEMPFEROL] | > 100 | 20.5 | 13.8 | 5.9 | 12.7 | 84 | 30.5 | 4.4 | 1.2 | > 100 | 0.2 | 8.7 | 6 | 23.9 | 56 | – |
| O=C1c2c(O)cc(O)cc2O[C@H](c2ccccc2)[C@H]1O [PINOBAKSIN] | > 100 | 16.9 | 7 | 3.6 | 10.8 | > 100 | 6.9 | 2.8 | -5.8 | > 100 | 2.2 | – | 1.8 | 7.1 | 47.7 | – |
| O[C@H](CCc1ccccc1)C[C@H](O)CCc1ccccc1 | > 100 | 48.1 | 1.6 | -0.5 | 7.2 | 33 | 90.2 | 4.6 | 11.1 | 60 | 1.1 | 10.4 | 2.7 | -2.3 | – | – |
| COc1cc(CC/C=C/C(=O)CCc2ccccc2)ccc1O | > 100 | 80.1 | 5.1 | 3.8 | 49.3 | 10 | 90.6 | 3 | 22.5 | 60 | 3.2 | 11.6 | 3.2 | 2.6 | – | Activity [3]: Active; Activity [6]: Active; Activity [8]: Active; Activity [12]: inactive; Activity [15]: Active |
| O=C(CCc1ccccc1)C[C@H](O)CCc1ccccc1 | > 100 | 33 | -4.7 | 0.7 | 10.6 | 48 | -7.6 | 2.5 | 6.8 | > 100 | 0 | -3.3 | 3.3 | -7.6 | 67.8 | – |
| COc1cc(CCC(C)=O)ccc1O [ZINGERONE] | > 100 | 8.3 | -8 | -2.8 | 6.1 | > 100 | -6.1 | 2.1 | 3.7 | > 100 | -0.5 | 7.6 | 1.4 | -8.8 | 15.5 | – |
| O=C(O)CCc1ccccc1 [PHENYL PROPIONIC ACID] | > 100 | 16.9 | 1.2 | -2.8 | 3.8 | > 100 | 2.9 | 5.3 | 6.3 | > 100 | -1.4 | 0.1 | 3.8 | 1.3 | 20.9 | – |
| OC[C@H]1O[C@@H](Oc2ccc(O)cc2)[C@H](O)[C@@H](O)[C@@H]1O [ARBUTIN] | – | 17.8 | 8.7 | – | 6.7 | 116 | 21.9 | – | – | > 1000 | – | – | – | 17.6 | 46.9 | inhibition at 300 µM [21]: 71%; inhibition at 300 µM [22]: 20.2%; inhibition at 1000 µM [23]: 88.7%; inhibition at 1000 µM [24]: 46.9% |

Reference: ChEMBL document CHEMBL1152510, “Melanogenesis inhibitors from the rhizomes of Alpinia officinarum in B16 melanoma cells” (Bioorg Med Chem, 2009)
